Laboratory results as given in patent US7101854B2, “Tetrapeptide stimulating the functional activity of hepatocytes, pharmacological substance on its basis and the method of its application” (Sankt-Peterburgskaya Obschestvennaya Organizatsiya …, priority 2000, dated 2006).
Residues, ends and D or L forms follow the SMILES beside them.

Legend:
hepatoma-27 = test: Growth of transplanted hepatoma-27 in rats; format: in vivo; conditions: for Mean life span (days after the tumour transplantation): rats with hepatoma-27; for Tumour growth: tetrapeptide 1 μg/kg s.c. 10 days, stabilised since 30th day, cyclophosphamide 100 μg/kg i.p. once, from 16th day; for Animals with complete tumour resolution: tetrapeptide: days 16, 25, 43, cyclophosphamide: days 28, 32, 41 after transplantation
Description: The study was performed on 37 female rats weighing 150-200 g with hepatoma-27 subcutaneously transplanted to the right femur region. […] Cyclophosphamide administered once intraperitoneally in the dose of 100 μg/kg was employed as a positive control. The tumour dynamics and animals' survival rate were assessed in experiments.

white mongrel rats = test: Subacute toxicity, daily intramuscular injection for 90 days; format: in vivo; conditions: i.m. 1 μg/kg, 0.3 mg/kg, 3 mg/kg daily for 90 days
Description: The animals were intramuscularly injected with the preparation once a day in the doses of 1 μg/kg, 0.3 mg/kg, 3 mg/kg in 0.5 ml of natural saline solution, daily for 90 days. The control animals were administered with natural saline solution in the same amount.
The animals were under daily observation during the whole course of investigation. Their behaviour, food and water consumption, state of hair integument and mucous membranes were noted. The rats were weighed weekly. Before the preparation administration and on the 30th, 60th and 90th days thereof the morphological composition and properties of their peripheral blood were examined. Biochemical and coagulological properties of the blood were studied at the experiment completion.

[1] = system: rats with acute toxic hepatitis; test: Acute toxic hepatitis induced by CCl4 in rats
Description: Freshly made solution heated to 30–35° C. was introduced into the femoral region at the ratio of 0.5 ml per 100 g of the animal's body weight, daily for 5 days.
In 5 days after the tetrapeptide administration completion, the rats were euthanaised and the investigation results were assessed.
In 20 days after the experiment onset, the rats were euthanaised.
The control animals received natural saline injections according to the same plans.
The state of the animals' liver was assessed by the data of biochemical analysis defining the concentration of protein, bilirubin, cholesterol, alanine aminotransferase (ALT) and aspartate aminotransferase (AST).
Tissue bits were fixed in 10% formalin solution in a 0.1M sodium phosphate buffer (pH 7.4). The histological preparations were stained with haematoxylin-eosin, staining for fat was performed with Sudan-3 and for glycogen—according to McManus.

[2] = system: liver fragments of 10–11-days old chicken embryos; test: Development of liver explants (square index); format: cell-based; conditions: 20 ng/ml, third day of cultivation
Description: The experiments were carried out in 53 liver fragments of 10–11-days old chicken embryos. Nutrient medium for the explant cultivation consisted of 35% of Eagle's solution, 25% of foetal calf serum, 35% of Hank's solution and 5% of chicken embryonic extract. The mixture is added glucose (0.6%), insulin (0.5 unit/ml), penicillin (100 unit/ml) and glutamine (2 mM). The liver fragments were placed in this medium and cultivated in Petri's dishes in a thermostat at 36.7° C. during 48 hours. […] Square index (SI) was taken for a biological activity criterion and calculated as a correlation of the total explant square including the growth zone to the initial square of a liver fragment. The SI values were expressed per cent, the control SI value taken for 100%.

[3] = system: patients with chronic persistent hepatitis; test: Clinical application in patients with chronic persistent hepatitis; format: in vivo, human
Description: The trial was carried out on 23 patients aged 32–53 years. The disease duration constituted 10–20 years. 79% of the patients had virus hepatitis A in the case history and 11%—virus hepatitis B. The majority of the patients complained of pains in the right hypochondrium, general weakness and quick fatigability. 45% of the patients noted dyspeptic disorders. All the patients had previously received periodic conventional medications.
The control group included 12 analogous patients treated by conventional methods.
The patients' complaints were assessed in dynamics. Performed were total blood and urine counts, biochemical blood investigation (“REFLOTRON”, Boehringer Mannheim, Germany) and immune assay of the peripheral blood (definition of Ig according to Mancini). Ultrasound investigation of-the liver was carried out on an ultrasound apparatus (ALOKA, Japan). Against the background of the applied treatment 93% of the patients noted weakness elimination, improved appetite and increased workability. […] The biochemical test results were in the focus of attention during the patients' examination. They reflected aminotransferase activity, pigment- and protein-forming functions of the liver. 72% of the patients registered hyperbilirubinemia, increased level of alanine aminotransferase (ALT) and slight rise in γ-globulin fraction of the blood proteins, chiefly, due to IgM, which evidenced a certain activity of the chronic inflammatory process.

rats = test: Chronic toxicity, daily intramuscular injection for 6 months; format: in vivo; conditions: i.m. 1 μg/kg, 0.1 mg/kg, 1 mg/kg daily for 6 months
Description: The animals were intramuscularly injected with the preparation in the doses of 1 μg/kg, 0.1 mg/kg, 1 mg/kg in 0.5 ml of natural saline solution, daily for 6 months. Their behaviour, food and water consumption, state of hair integument and mucous membranes were noted. The rats were weighed daily during the first three months of the experiment and then once a month. In three months after the administration onset and at the experiment completion, haematological and biochemical investigations were conducted. The functions of the cardiovascular system, liver, pancreas, kidneys and adrenal glands were assessed. At the end of the tetrapeptide administration, part of the animals were subjected to a post mortem examination to assess the state of various segments of their brain and spinal marrow, heart, aorta, lungs, liver, kidneys, endocrine and immune organs.

white mongrel male mice = test: Acute toxicity according to Kerber, single intramuscular administration; format: in vivo
Text: This study was designed to define the tolerable toxic doses of the preparation, assess the degree and character of pathologic alterations in various organs and systems of the organism and reveal the dependence of toxic effects on the dosage and duration of the preparation intake.
Examined were 72 white mongrel male mice weighing 20–22 g. The mice were kept in vivarium under standard regimen and fed upon standard rations. They were randomised to six equal groups, 12 mice in each. The animals were once intramuscularly administered with 0.25 ml of the preparation in the doses of 1 mg/kg, 2 mg/kg, 3 mg/kg, 4 mg/kg and 5 mg/kg (several thousand times exceeding the therapeutic dose recommended for clinical trials). The control animals received the same amount of natural saline solution.
No alterations in their general state, behaviour, motor activity, hair and skin integument, physiological discharge were registered.

[4] = system: hepatocyte monolayer culture of rats of various ages; test: Intensity of protein synthesis ([3H]-leucin inclusion) in monolayer hepatocyte culture; format: cell-based; conditions: 0.005 μg/ml, 4 hours
Description: The intensity of protein synthesis was investigated in a hepatocyte culture of rats aged 4, 8 and 18 months.
To isolate hepatocytes, rat liver was perfused with calcium-free Hanks' solution added 0.5 mM of EDTA and then 0.05% collagenase solution in Medium 199. The cellular suspension was filtered out and centrifuged. The hepatocyte suspension in the concentration of 5×10^5 was introduced into Petri's dishes, their bottoms surfaced with collagen-covered glass. Applied Medium 199 contained no bovine serum but was added 0.2 mg/ml of albumen and 5 μg/ml of insulin. The dishes with glass-covered bottoms were placed in a thermostat at 37° C., aerated and added CO2. […]
Protein synthesis was assessed by [^3H]-leucin inclusion regarding the standard errors for a free marked leucin pull in the same culture. […] Radioactivity of the pull of free intracellular leucin and cellular proteins (in hyamine fraction) after adding the corresponding scintillators was measured on a radioactivity counter SL-30.
The intensity of protein synthesis was calculated by the formula: Icorr=Ii×Pav/Pi(cpm), where
Icorr—inclusion of leucin regarding the standard errors of free leucin pull, Ii—measured radioactivity of the proteins for i-culture, Pav—mean radioactivity of proteins and pull for the cultures studied in this experiment, Pi—total radioactivity of proteins and pull of the same culture.

[5] = Day 5, 1 μg i.m. for 5 days accompanying CCl4 impact
[6] = Day 20, 1 μg i.m. daily for 15 days after CCl4 impact
[7] = Day 20, tetrapeptide after CCl4 impact
[8] = after treatment, i.m. once a day 0.01–100 μg/kg, 10–40 days
[9] = against the background of the applied treatment

O=P1(N(CCCl)CCCl)NCCCO1 (centres unmarked) [Cyclophosphamide, reference compound]
Mean life span (days after the tumour transplantation) (hepatoma-27): 61.50 ± 4.58 days | Tumour growth (hepatoma-27): stable decrease in the tumour growth rate | Animals with complete tumour resolution (hepatoma-27): three

C[C@H](NC(=O)[C@H](CC(=O)O)NC(=O)[C@H](CCC(=O)O)NC(=O)[C@@H](N)CCCCN)C(=O)O [Lys-Glu-Asp-Ala tetrapeptide, lysyl-glutamyl-aspartyl-alanine] (H-KEDA-OH)
Pathologic alterations (general state, blood indices, organs, liver and kidney functions), subacute toxicity (white mongrel rats): no pathologic alterations | ALT [1, 5]: 35.3 ± 3.8 international units per ml | AST [1, 5]: 35.6 ± 4.3 international unit per ml | Cholesterol [1, 5]: 4.1 ± 0.25 mm/l | Protein (blood) [1, 5]: 77.8 ± 3.7 g/L | Total bilirubin [1, 5]: 12.5 ± 2.1 µmol/L | Hepatocytes with fat inclusions ([1]; Day 5, tetrapeptide accompanying CCl4 impact): 49.8 ± 6.3 % | ALT [1, 6]: 5.3 ± 0.98 international units per ml | AST [1, 6]: 11.3 ± 1.9 international unit per ml | Cholesterol [1, 6]: 4.2 ± 0.35 mm/l | Protein (blood) [1, 6]: 83.4 ± 3.4 g/L | Total bilirubin [1, 6]: 14.8 ± 3.2 µmol/L | Hepatocytes with fat inclusions [1, 7]: 10.0 ± 2.1 % | Hepatocytes with glycogen synthesis [1, 7]: 90.0 ± 8.1 % | Hepatocytes with negative staining for fat ([1]; Day 20, tetrapeptide for 15 days after CCl4 impact): 90% | Concentration of protein, bilirubin, cholesterol and aminotransferases in the blood ([1]; tetrapeptide during 15 days after the end of CCl4 impact): restored to the normal values | Increase in the explant square index (SI) compared to control [2]: 24% | Tumour size relative to controls (times less) (hepatoma-27; 30th day, 1 μg/kg s.c. daily for 10 days): 2.5 times | Mean life span (days after the tumour transplantation) (hepatoma-27): 68.00 ± 1.23 days | Tumour growth (hepatoma-27): stable inhibition of the tumour growth | Proportion of ulcer-bearing animals (hepatoma-27; tetrapeptide from the 39th day after transplantation, cyclophosphamide only on the 43rd day): significant decrease in the proportion of ulcer-bearing animals | Animals with complete tumour resolution (hepatoma-27): Three | IgA ([3]; after treatment): 2.30 ± 0.07 g/L | IgG ([3]; after treatment): 13.9 ± 0.9 g/L | IgM ([3]; after treatment): 1.50 ± 0.03 g/L | ALT (peripheral blood) [3, 8]: 40.8 ± 3.1 mmol/L | AST (peripheral blood) [3, 8]: 38.5 ± 2.4 mmol/L | Bilirubin (peripheral blood) [3, 8]: 21.7 µM | Cholesterol (peripheral blood) [3, 8]: 5.1 ± 0.3 mmol/L | GGT (peripheral blood) [3, 8]: 41.6 ± 4.5 mmol/L | Triglycerides (peripheral blood) [3, 8]: 2.2 ± 0.2 mmol/L | Patients noting weakness elimination, improved appetite and increased workability [3, 9]: 93% | Patients with significantly lower intensity of the pain syndrome [3, 9]: 51% | Pathologic alterations (general state, blood indices, organs, liver and kidney functions), chronic toxicity (rats): no pathologic alterations | Acute toxic reactions (white mongrel male mice; doses several thousand times exceeding the therapeutic one): does not entail any acute toxic reactions | Death of animals (white mongrel male mice; single intramuscular 1, 2, 3, 4, 5 mg/kg, 72 hours and 14 days): none of the animals died | Protein synthesis oscillation amplitude ([4]; hepatocytes of older rats): increased significantly | Level of protein synthesis in hepatocytes ([4]; rats aged 4, 8 and 18 months, strongest effect in cells of older animals): raised the level of protein synthesis
